Patent US20180078656A1, “CRYPTOPHYCIN-BASED ANTIBODY-DRUG CONJUGATES WITH NOVEL SELF-IMMOLATIVE LINKERS” (priority 2015, published 2018)
Structures can show the parent of a compound that is named as a salt. Where two headings read alike, the source gives them in different places.

Legend:
H69AR cells = experiment: Cell viability assay (CellTiter-Glo), drug-resistant H69AR; assay type: cell-based; settings: for IC50: 120 h incubation
Description: (§1) H69 cells and the drug-resistant counterpart H69AR were obtained from the American Type Culture Collection and were grown according to standard protocols. The effects of cryptophycin and cryptophycin conjugates on the viability of wild type and drug resistant tumor cell lines were assessed using the CellTiter-Glo® Luminescent Cell Viability Assay (Promega), according to the manufacturer protocol. Cells were plated in black-walled 96-well plates (5000 cells per well) and allowed to adhere overnight at 37° C. in a humidified atmosphere of 5% CO2. Medium was then removed and replaced by fresh culture medium containing increasing concentrations of cryptophycin analogs or doxorubicin as a control. Cells were incubated with compounds for 120 h at 37° C. in 5% CO2. Eight triplicate 1:3 serial dilution datapoints were recorded for each experimental condition (from […] to 10 nM for CRY55-Gly, CRY55-Gly-LINKER73 and CRY55-Gly-LINKER76, from 1.2 nM to 2700 nM for doxorubicin). At the end of the incubation, luminescence was measured using a Perkin Elmer Wallac 1450 MicroBeta TriLux detector. Compound cytotoxicity was evaluated in comparison to cells treated with 0.1% DMSO.

H69 cells = experiment: Cell viability assay (CellTiter-Glo), H69 wild type; assay type: cell-based; settings: wild type H69, 120 h incubation
Description: as §1

MCF7 cells [1] = experiment: Cell viability assay (CellTiter-Glo), MCF7, 96 h; assay type: cell-based, human; settings: read-out: MCF7 CC50
Description: (§2) Tumor cell lines (breast carcinoma cell lines SKBR-3 and MCF7 and colon carcinoma cell line HCT116) were obtained from American Type Culture Collection and were grown according to standard protocols. […] The effects of the cryptophycin-55-glycinate ADC conjugate on tumor cell viability were assessed using the CellTiter-Glo® Luminescent Cell Viability Assay (Promega), according to the manufacturer protocol. […] Cells were plated in black-walled 96-well plates (5000 cells per well for SKBR-3 and MCF7; 2000 cells per well for HCT116) and allowed to adhere overnight at 37° C. in a humidified atmosphere of 5% CO2. […] Five to eight triplicate datapoints were recorded for each experimental condition. At the end of the incubation luminescence was measured using a Perkin Elmer Wallac 1450 MicroBeta TriLux detector. Compound cytotoxicity was evaluated in comparison to cells treated with PBS (antibodies) or 0.1% DMSO (compounds). CC50 values were calculated by fitting viability data with a four-parameter logistic equation using a Kaleidagraph software.

HCT116 cells = experiment: Cell viability assay (CellTiter-Glo), HCT116; assay type: cell-based; settings: read-out: HCT116 CC50
Description: as §2

SK-BR3 cells = experiment: Cell viability assay (CellTiter-Glo), SK-BR3; assay type: cell-based; settings: read-out: SK-BR3 CC50
Description: as §2

MCF7 cells [2] = experiment: Cell viability assay (CellTiter-Glo), MCF7, 120 h; assay type: cell-based, human; settings: for IC50: read-out: IC50, MCF7
Description: (§3) Tumor cell lines (the rat pancreatic tumor cell line AR42J and the human breast carcinoma cell line MCF7) were obtained from the American Type Culture Collection and were grown according to standard protocols.
(§4) The effects of the cryptophycin-55-glycinate-octreotide conjugate of Example 5 on the viability of the tumor cell lines AR42J (STTR2^high) and MCF7 (SSTR2^low) were assessed using the CellTiter-Glo® Luminescent Cell Viability Assay (Promega), according to the manufacturer protocol. Cells were plated in black-walled 96-well plates (5000 cells per well) and allowed to adhere overnight at 37° C. in a humidified atmosphere of 5% CO2. Medium was then removed and replaced by fresh culture medium containing increasing concentrations of cryptophycin-55-glycinate-octreotide conjugate (CRY55-Gly-Oct), unconjugated octreotide, or free cryptophycin-55-glycinate (CRY55-Gly), and the cells were incubated for 120 h at 37° C. in 5% CO2. Nine triplicate 1:3 serial dilution datapoints were recorded for each experimental condition (from 0.0015 nM to 10 nM for CRY55-Gly and CRY55-Gly-Oct, from 0.0015 uM to 10 uM for the unconjugated octreotide). At the end of the incubation luminescence was measured using a Perkin Elmer Wallac 1450 MicroBeta TriLux detector. Compound cytotoxicity was evaluated in comparison to cells treated with 0.1% DMSO. IC50 values were calculated by fitting viability data with a four-parameter logistic equation using a Kaleidagraph software. Residual cell viability plots obtained upon treatment of the AR42J and MCF7 cells with the different compounds are shown in FIG. 3 and FIG. 4, respectively.

AR42J cells = experiment: Cell viability assay (CellTiter-Glo), AR42J, 120 h; assay type: cell-based, rat; settings: 120 h incubation; for IC50: SSTR2-high AR42J
Description: as §3, §4

Q: With “Azide-TEG-Val-Cit-Gly-Pro-Gly-cryptophycin-55 [Example 5]” as the molecule, how does the IC50 (H69AR cells) read?
A: 3.6 nM

Q: And the IC50 (H69 cells)?
A: 1.7 nM

Q: Which results are given for “Maleimide-PEG-Val-Cit-Pro-Gly-Cryptophycin-55-glycinate [Cry-55-Linker]”?
A: CC50 (MCF7 cells [1]; Her2-low MCF7, 96 h incubation): 6.1 nM; CC50 (HCT116 cells; Her2-low HCT116, 96 h incubation): 4.4 nM; CC50 (SK-BR3 cells; HER2-positive SK-BR3, 96 h incubation): 2.6 nM

Q: Which IC50 (H69AR cells; Homo sapiens) does the source give for `COc1ccc(C[C@H]2NC(=O)/C=C/C[C@@H]([C@H](C)[C@@H](O)[C@@H](Cl)c3ccccc3)OC(=O)[C@H](CC(C)C)OC(=O)C(C)(C)CNC2=O)cc1Cl` [Cry-55, Cryptophycin-55] here?
A: 0.23 nM

Q: And the CC50 (MCF7 cells [1]; Homo sapiens, MCF7, 96 h)?
A: 0.18 nM

Q: And the IC50 (H69 cells; Homo sapiens, NCI-H69)?
A: 0.1 nM

Q: And the CC50 (HCT116 cells; Homo sapiens, HCT-116, 96 h)?
A: 0.1 nM

Q: And the CC50 (SK-BR3 cells; Homo sapiens, SK-BR-3, 96 h)?
A: 0.076 nM

Q: For `C[C@@H](O)[C@@H]1NC(=O)[C@H](CCCCN)NC(=O)[C@@H](Cc2c[nH]c3ccccc23)NC(=O)[C@H](Cc2ccccc2)NC(=O)[C@@H](NC(=O)[C@H](N)Cc2ccccc2)CSSC[C@@H](C(=O)N[C@H](CO)[C@@H](C)O)NC1=O` [Octreotide], which “IC50, MCF7 (in words)” value (MCF7 cells [2]; SSTR2-low MCF7, 120 h, tested […] to 10 uM) is on record?
A: completely ineffective

Q: And the “inhibition of AR42J viability” value (AR42J cells; up to 10 uM)?
A: 30% inh. up to 10 uM

Q: How did the IC50 (H69AR cells; Homo sapiens) turn out when `COc1ccc(C[C@H]2NC(=O)/C=C/C[C@@H]([C@H](C)[C@@H](OC(=O)CN)[C@@H](Cl)c3ccccc3)OC(=O)[C@H](CC(C)C)OC(=O)C(C)(C)CNC2=O)cc1Cl` [Cry-55-Gly, Cryptophycin-55-glycinate trifluoroacetate] was run?
A: 0.15 nM

Q: What about the IC50 (MCF7 cells [2]; Homo sapiens, MCF7, 120 h) of the same molecule?
A: 0.2 nM

Q: And the IC50 (AR42J cells; Rattus norvegicus, AR-42J)?
A: 0.8 nM

Q: What about the CC50 (MCF7 cells [1]; Homo sapiens, MCF7, 96 h) of the same molecule?
A: 0.25 nM

Q: What about the IC50 (H69 cells; Homo sapiens, NCI-H69) of the same molecule?
A: 0.09 nM

Q: And the CC50 (HCT116 cells; Homo sapiens, HCT-116, 96 h)?
A: 0.19 nM

Q: And the CC50 (SK-BR3 cells; Homo sapiens, SK-BR-3, 96 h)?
A: 0.09 nM

Q: Which “fold difference of IC50 on MCF7, conjugate versus cryptophycin-55-glycinate” value (MCF7 cells [2]; MCF7, 120 h incubation) does the source give for `COc1ccc(C[C@H]2NC(=O)/C=C/C[C@@H]([C@H](C)[C@@H](OC(=O)CNC(=O)[C@@H]3CCCN3C(=O)CNC(=O)[C@H](CCCNC(N)=O)NC(=O)[C@@H](NC(=O)CCOCCOCCOCCOCCn3cc(CCC(=O)N[C@H](Cc4ccccc4)C(=O)N[C@H]4CSSCC(C(=O)N[C@H](CO)[C@@H](C)O)NC(=O)C([C@@H](C)O)NC(=O)[C@H](CCCCN)NC(=O)[C@@H](Cc5c[nH]c6ccccc56)NC(=O)[C@H](Cc5ccccc5)NC4=O)nn3)C(C)C)[C@@H](Cl)c3ccccc3)OC(=O)[C@H](CC(C)C)OC(=O)C(C)(C)CNC2=O)cc1Cl` (some centres unmarked) [Oct-Cry55-Gly conjugate] here?
A: 90 fold

Q: And the IC50 (MCF7 cells [2]; SSTR2-low MCF7, 120 h incubation)?
A: 27 nM

Q: What about the IC50 (AR42J cells) of the same molecule?
A: 0.9 nM

Q: Which “effect on H69AR cell viability (in words)” value (H69AR cells; 120 h, 1.2 nM to 2700 nM) does the source give for `COc1cccc2c1C(=O)c1c(O)c3c(c(O)c1C2=O)C[C@@](O)(C(=O)CO)C[C@@H]3O[C@H]1C[C@H](N)[C@H](O)[C@H](C)O1` [doxorubicin] here?
A: only minor effects
